# Laboratory results published in ChEMBL document CHEMBL3421631, “Structure-activity relationship and properties optimization of a series of quinazoline-2,4-diones as inhibitors of the canonical Wnt pathway” (Eur J Med Chem, 2015).
# What was measured:
# [1] = Permeability of the compound at 10 uM by PAMPA-BBB assay in presence of mixture of porcine brain lipids dodecane; type: ADME; conditions: pig
# [2] = Intrinsic clearance in male mouse liver microsomes at 1 uM by UPLC/TOF-MS analysis; type: ADME; conditions: read-out: CLH
# [3] = Metabolic stability in mouse plasma assessed as compound remaining measured at 10 uM after 3 hrs by LC-MS/MS analysis; type: ADME, cell-free; conditions: read-out: Stability
# [4] = Ratio of drug level in brain to plasma in CD1 mouse at 5 mg/kg, po; type: ADME, organism-based; parameters: dose 5 mg/kg, route oral; conditions: read-out: BPR
# [5] = Toxicity in human NCI-N87 cells xenografted po dosed SCID mouse qd for 14 days; type: organism-based; conditions: in vivo
# [6] = Tmax in SCID mouse at 100 mg/kg, po qd for 14 days; type: ADME, organism-based; parameters: dose 100 mg/kg, route oral; conditions: in vivo
# [7] = test system: MDR1; experiment: Apparent permeability from apical to basolateral side in MDCK cells expressing human MDR1 at 10 uM after 120 mins by UPLC/TOF-MS analysis; type: ADME, cell-based, Canis lupus familiaris; conditions: dog, read-out: permeability
# [8] = Cmax in SCID mouse at 300 mg/kg, po qd for 1 to 3 days; type: ADME, organism-based; parameters: dose 300 mg/kg, route oral; conditions: in vivo
# [9] = test system: Mus musculus; experiment: Volume of distribution at steady state in CD1 mouse at 5 mg/kg, po; type: ADME, organism-based; parameters: dose 5 mg/kg, route oral; conditions: in vivo
# [10] = AUC in SCID mouse at 100 mg/kg, po qd for 1 to 7 days and 14 to 21 days; type: ADME, organism-based; parameters: dose 100 mg/kg, route oral; conditions: plasma
# [11] = Oral bioavailability in CD1 mouse at 5 mg/kg; type: ADME, organism-based; conditions: in vivo
# [12] = AUC in SCID mouse at 100 mg/kg, po qd for 14 days; type: ADME, organism-based; parameters: dose 100 mg/kg, route oral; conditions: plasma
# [13] = Half life in SCID mouse at 100 mg/kg, po qd for 14 days; type: ADME, organism-based; parameters: dose 100 mg/kg, route oral; conditions: in vivo
# [14] = Half life in SCID mouse at 100 mg/kg, po qd for 1 to 7 days and 14 to 21 days; type: ADME, organism-based; parameters: dose 100 mg/kg, route oral; conditions: in vivo
# [15] = Cmax in SCID mouse at 100 mg/kg, po qd for 14 days; type: ADME, organism-based; parameters: dose 100 mg/kg, route oral; conditions: in vivo
# [16] = Cmax in SCID mouse at 100 mg/kg, po qd for 1 to 7 days and 14 to 21 days; type: ADME, organism-based; parameters: dose 100 mg/kg, route oral; conditions: in vivo
# [17] = Tmax in SCID mouse at 100 mg/kg, po qd for 1 to 7 days and 14 to 21 days; type: ADME, organism-based; parameters: dose 100 mg/kg, route oral; conditions: in vivo
# [18] = Cmax in CD1 mouse at 5 mg/kg, po; type: ADME, organism-based; parameters: dose 5 mg/kg, route oral; conditions: in vivo
# [19] = Half life in SCID mouse at 300 mg/kg, po qd for 1 to 3 days; type: ADME, organism-based; parameters: dose 300 mg/kg, route oral; conditions: in vivo
# [20] = test system: Mus musculus; experiment: AUC (0 to infinity) in CD1 mouse at 5 mg/kg, po; type: ADME, organism-based, Plasma; parameters: time infinity, dose 5 mg/kg, route oral; conditions: in vivo
# [21] = Tmax in SCID mouse at 300 mg/kg, po qd for 1 to 3 days; type: ADME, organism-based; parameters: dose 300 mg/kg, route oral; conditions: in vivo
# [22] = Half life in CD1 mouse at 5 mg/kg, po; type: ADME, organism-based; parameters: dose 5 mg/kg, route oral; conditions: in vivo
# [23] = AUC in SCID mouse at 300 mg/kg, po qd for 1 to 3 days; type: ADME, organism-based; parameters: dose 300 mg/kg, route oral; conditions: plasma
compound,measurement,setting,value
Cc1ccc2[nH]c(=O)n(C[C@H]3CC[C@H](C(=O)N4CCN(C(=O)C(C)C)CC4)CC3)c(=O)c2c1,permeability,[1],permeable
O=C(C1CC1)N1CCN(C(=O)[C@H]2CC[C@H](Cn3c(=O)[nH]c4ccccc4c3=O)CC2)CC1,permeability,[1],permeable
CC(C)C(=O)N1CCN(C(=O)[C@H]2CC[C@H](Cn3c(=O)[nH]c4cccc(F)c4c3=O)CC2)CC1,permeability,[1],permeable
COc1ccccc1N1CCN(C(=O)[C@H]2CC[C@H](Cn3c(=O)[nH]c4ccccc4c3=O)CC2)CC1,permeability,[1],impermeable
COc1cccc2[nH]c(=O)n(C[C@H]3CC[C@H](C(=O)N4CCN(C(=O)C(C)C)CC4)CC3)c(=O)c12,permeability,[1],permeable
Cc1cccc2c(=O)n(C[C@H]3CC[C@H](C(=O)N4CCN(C(=O)C(C)C)CC4)CC3)c(=O)[nH]c12,permeability,[1],permeable
CC(C)CN1CCN(C(=O)[C@H]2CC[C@H](Cn3c(=O)[nH]c4ccccc4c3=O)CC2)CC1,permeability,[1],permeable
O=c1[nH]c2ccccc2c(=O)n1C[C@H]1CC[C@H](C(=O)N2CCN(CC3CC3)CC2)CC1,permeability,[1],permeable
COCC(=O)N1CCN(C(=O)[C@H]2CC[C@H](Cn3c(=O)[nH]c4ccccc4c3=O)CC2)CC1,permeability,[1],permeable
CC(C)C(=O)N1CCN(C(=O)[C@H]2CC[C@H](Cn3c(=O)[nH]c4ccccc4c3=O)CC2)CC1,permeability,[1],permeable
CC(C)C(=O)N1CCN(C(=O)[C@H]2CC[C@H](Cn3c(=O)[nH]c4cccc(Cl)c4c3=O)CC2)CC1,permeability,[1],permeable
O=c1[nH]c2ccccc2c(=O)n1C[C@H]1CC[C@H](C(=O)N2CCN(Cc3ccccc3)CC2)CC1,permeability,[1],impermeable
COc1ccc2[nH]c(=O)n(C[C@H]3CC[C@H](C(=O)N4CCN(C(=O)C5CC5)CC4)CC3)c(=O)c2c1,microsomal CLint at 1 µM,[2],65.6 µL/min/mg
same,"remaining at 3 h, 10 µM",[3],78%
same,permeability,[1],permeable
CC(=O)N1CCN(C(=O)[C@H]2CC[C@H](Cn3c(=O)[nH]c4ccccc4c3=O)CC2)CC1,permeability,[1],permeable
O=C(C1CCC1)N1CCN(C(=O)[C@H]2CC[C@H](Cn3c(=O)[nH]c4ccccc4c3=O)CC2)CC1,permeability,[1],permeable
O=c1[nH]c2ccccc2c(=O)n1C[C@H]1CC[C@H](C(=O)N2CCN(c3cnccn3)CC2)CC1,permeability,[1],permeable
COCC(=O)N1CCN(C(=O)[C@H]2CC[C@H](Cn3c(=O)[nH]c4ccc(OC)cc4c3=O)CC2)CC1,microsomal CLint at 1 µM,[2],14.5 µL/min/mg
same,"remaining at 3 h, 10 µM",[3],74%
same,permeability,[1],permeable
O=C(c1ccno1)N1CCN(C(=O)[C@H]2CC[C@H](Cn3c(=O)[nH]c4ccccc4c3=O)CC2)CC1,permeability,[1],permeable
CC(C)C(=O)N1CCN(C(=O)[C@H]2CC[C@H](Cn3c(=O)[nH]c4cc(Cl)ccc4c3=O)CC2)CC1,permeability,[1],permeable
COCC(=O)N1CCN(C(=O)[C@H]2CC[C@H](Cn3c(=O)c4cc(OC)ccc4n(C)c3=O)CC2)CC1,Kp,[4],0.03
same,MTD at 336 h,[5],250 mg/kg
same,Tmax,[6],0.5 h
same,"Papp A→B at 2 h, 10 µM",[7],1.3 ×10⁻⁶ cm/s
same,Cmax,[8],35 µM
same,Vdss,[9],0.83 L/kg
same,AUC,[10],101 µM·h
same,bioavailability,[11],42%
same,AUC at 336 h,[12],113 µM·h
same,half-life,[13],2.2 h
same,half-life,[14],1.6 h
same,Cmax,[15],27 µM
same,Cmax,[16],22 µM
same,Tmax,[17],0.5 h
same,Cmax,[18],1.3 µM
same,half-life,[19],5.4 h
same,microsomal CLint at 1 µM,[2],23 µL/min/mg
same,"remaining at 3 h, 10 µM",[3],95%
same,AUC,[20],4.9 µM·h
same,Tmax,[21],1 h
same,half-life,[22],2.2 h
same,permeability,[1],permeable
same,AUC,[23],193 µM·h
COc1ccc2[nH]c(=O)n(C[C@H]3CC[C@H](C(=O)N4CCN(C(C)=O)CC4)CC3)c(=O)c2c1,microsomal CLint at 1 µM,[2],41.2 µL/min/mg
same,"remaining at 3 h, 10 µM",[3],100%
same,permeability,[1],permeable
COc1ccc2c(c1)c(=O)n(C[C@H]1CC[C@H](C(=O)N3CCN(C(=O)C4CC4)CC3)CC1)c(=O)n2C,microsomal CLint at 1 µM,[2],139 µL/min/mg
same,"remaining at 3 h, 10 µM",[3],98%
same,permeability,[1],permeable
COc1ccc2[nH]c(=O)n(C[C@H]3CC[C@H](C(=O)N4CCN(C(=O)C(C)C)CC4)CC3)c(=O)c2c1,permeability,[1],permeable
COc1ccc2c(c1)c(=O)n(C[C@H]1CC[C@H](C(=O)N3CCN(C(C)=O)CC3)CC1)c(=O)n2C,microsomal CLint at 1 µM,[2],33.3 µL/min/mg
same,"remaining at 3 h, 10 µM",[3],100%
same,permeability,[1],permeable
O=c1[nH]c2ccccc2c(=O)n1C[C@H]1CC[C@H](C(=O)N2CCN(c3ncccn3)CC2)CC1,permeability,[1],permeable
